Biological target: T1, porcine S100A12 (Calgranulin C) (Sus scrofa, UniProt P80310)
T1 construct: pET28a-S100A12 in E. coli BL21(DE3); N-terminal or other His-tag cut with thrombin; non-covalent antiparallel homodimer; apo form in SPR
T1 sequence (P80310 1-92 limits assumed): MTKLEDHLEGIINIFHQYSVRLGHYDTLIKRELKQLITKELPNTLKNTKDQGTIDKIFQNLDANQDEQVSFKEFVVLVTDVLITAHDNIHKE
Test: SPR, Biacore X, L1 sensorchip, immobilized LUVs
Assay type: binding
Excerpt: SPR, Biacore X, L1 sensorchip, immobilized LUVs on porcine S100A12 (Calgranulin C)

SMILES | Kd
CCCCCCCCCCCCCCCC(=O)OC[C@H](COP(=O)([O-])OCC[N+](C)(C)C)OC(=O)CCCCCCCCCCCCCCC [DPPC, 1,2-dipalmitoyl-sn-glycero-3-phosphocholine] | 5.9 µM
CCCCCCCCCCCCCCCC(=O)OC[C@H](COP(=O)(O)OCC(O)CO)OC(=O)CCCCCCCCCCCCCCC (some centres unmarked) [DPPG, 1,2-dipalmitoyl-sn-glycero-3-phosphoglycerol] | 0.63 µM
